# Key:
# COX-1 = target: T1, COX-1 (Ovis aries, UniProt P05979); assay: COX-1 inhibition, COX (ovine/human) inhibitor screening assay kit; assay type: biochemical
# T1 construct: purchased Cayman Chemicals (bought through Sigma-Aldrich) 560131
# T1 sequence (P05979 25-600): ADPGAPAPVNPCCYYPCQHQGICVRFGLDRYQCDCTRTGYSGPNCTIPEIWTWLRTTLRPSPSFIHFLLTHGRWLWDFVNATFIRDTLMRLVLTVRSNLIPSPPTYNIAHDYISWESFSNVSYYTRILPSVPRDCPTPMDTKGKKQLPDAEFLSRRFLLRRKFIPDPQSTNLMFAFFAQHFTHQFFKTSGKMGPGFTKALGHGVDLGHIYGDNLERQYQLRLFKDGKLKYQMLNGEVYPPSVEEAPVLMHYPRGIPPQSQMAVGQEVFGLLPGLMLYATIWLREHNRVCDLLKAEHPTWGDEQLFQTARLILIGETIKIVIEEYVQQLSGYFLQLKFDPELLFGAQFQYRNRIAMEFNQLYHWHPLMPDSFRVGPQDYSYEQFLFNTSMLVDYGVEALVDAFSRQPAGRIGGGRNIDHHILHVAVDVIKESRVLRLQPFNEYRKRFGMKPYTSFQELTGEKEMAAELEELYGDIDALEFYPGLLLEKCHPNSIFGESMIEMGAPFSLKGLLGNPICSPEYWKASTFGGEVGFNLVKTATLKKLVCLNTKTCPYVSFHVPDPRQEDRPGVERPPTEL
# Protocol: Cell culture reagents were purchased from Euroclone (Milan, Italy). COX (ovine/human) inhibitor screening assay kit (Catalog No. 560131, Cayman Chemicals, Ann Arbor, MI, USA) was purchased from Sigma-Aldrich, Burlington, MA, USA. […] The other reagents were purchased from Sigma-Aldrich, Burlington, MA, USA.
# The COX-1/2 inhibition screening experiments were carried out according to the manufacturer’s instructions. The plate was incubated for 60 min at r.t. under shaking and read with the Tecan Infinite 200 Microplate Reader at λ = 405 nm.
# The graph between percent inhibition of the enzyme and corresponding concentration of the compound provided IC50 values for the probe compounds.
# SKOV-3 xenograft tumors = assay: NIR fluorescence imaging / biodistribution in SKOV-3 s.c. xenograft models; assay type: in vivo, NSG mice; details: SKOV-3 s.c. mice, i.v.
# Protocol: In addition to OVCAR-3, the COX-1 low expressing SKOV-3 cell line was subcutaneously xenografted to evaluate the specificity of RR11 and 23 (MSA14). RR11 exerted high tumor fluorescence already two hours after injection (n = 2) with similar organ biodistribution as already observed in OVCAR-3 xenografts (TBR = 1.28; Figure 4A and Figure 5A). 23 (MSA14) was evaluated at 6 and 24 h, with a dose of 100 µM and 500 µM in n = 4 SKOV-3 models. […] However, the tumor fluorescence intensity was not sufficient to discriminate between healthy organs and malignant tissue at low exposure times of 100 ms “ex vivo”. The fluorescence signal in COX-1 low-expressing SKOV-3 tumors might be an indication of non-specific compound accumulation.
# Female NOD-scid IL2rγ^null (NSG) mice, aged 6 to 25 weeks were maintained under defined floral conditions and no more than five mice were housed in individually ventilated (HEPA-filtered air) cages, kept on a 12 h dark/night schedule at a constant temperature of 21 °C and at 50% relative humidity at the University of Bergen’s animal facility. Observations of body weight and general condition including activity levels, appearance, and food intake were monitored twice weekly, and humane endpoints were defined with the use of score sheets. When indicated, animals were euthanized according to institutional guidelines.
# Single cell suspensions of SKOV-3 and OVCAR-3 ovarian cancer cells, cultured as previously described, were obtained by washing the adherent cells with PBS and detached with trypsin-EDTA for 3–5 min at 37 °C. For subcutaneous injection (s.c.), cells were resuspended in an ice-cold mixture of 100 µL per insulin syringe (3/10-cc with 30 g needle) comprising 50 μL saline, 25 µL medium, and 25 µL Matrigel (cat# 08-774-391, Corning Inc®, Fisher Scientific, Waltham, MA, USA). SKOV-3 and OVCAR-3 subcutaneous xenograft models were established through lateral flank injection of 5 × 10^6 cells and 1 × 10^6 cells, respectively, under 3.5% sevoflurane inhalation anesthesia (cat# 29960 SevoFlo, Zoetis, Louvain-la-Neuve, Belgium). Mice were imaged with RR11 and MSA14 when the caliper measurements reached 200–500 mm^3 (Volume = (height × width × length × π)/6).
# “In vivo” and “ex vivo” FLI was performed with both COX-1 targeting compounds, the reference compound RR11 and the novel 23 (MSA14), at different concentrations and time points. Prior to FLI, mice were shaved to avoid autofluorescence background signal. The desired concentration (100 µM, 500 µM) of the compound stock solutions in DMSO were freshly diluted with PBS, before 100 µL was injected intravenously into the tail vein. FLI was performed with the IVIS Spectrum In Vivo Imaging System with a λabs 640 ± 15 nm bandpass filter (BP), λem 680 ± 10 nm BP for RR11, and λabs 745 ± 15 nm BP, λem 820 ± 10 nm BP for 23 (MSA14), 0.5–24 h after small molecule administration. All scans were acquired with epi-illumination and auto exposure. Regions of interest (ROI) were manually gated around the tumor, organs, or the whole ventral and lateral positioned mouse and calculated using the Living image software (Perkin Elmer). The ROI of the muscle at the flank region was used to calculate the tumor-to-background (TBR) ratios.
SMILES,IC50 (COX-1),"inhibition at 50 µM (COX-1; at 50 µM compound final concentration, read-out: COX-1 % inhib.)","average TBR (SKOV-3 xenograft tumors; 6 h, 100 µM)","average TBR (SKOV-3 xenograft tumors; 6 h, 500 µM)","average TBR (SKOV-3 xenograft tumors; 24 h, 100 µM)","average TBR (SKOV-3 xenograft tumors; 24 h, 500 µM)",SI (selectivity index) (COX-1),COX-1 % inhib. (COX-1; at 50 µM compound final concentration),tumor-to-background ratio (TBR) (SKOV-3 xenograft tumors; two hours after injection)
"CCN1/C(=C/C=C/C=C/C=C/C2=[N+](CCCCCC(=O)NCCCCNC(=O)Cc3onc(-c4ccc(OC)cc4)c3-c3ccc(OC)cc3)c3ccc4ccccc4c3C2(C)C)C(C)(C)c2c1ccc1ccccc21 [23 (MSA14), 3-(6-(4-(2-(3,4-Bis(4-methoxyphenyl)isoxazole-5-yl)acetamido)butyl)amino-6-oxohexyl)-2-[7-(1,3-dihydro-1,1-dimethyl-3-ethyl-2H-benz[e]indolin-2-yl-idene)-1,3,5-heptatrienyl]-1,1-dimethyl-3-(6-carboxilato-hexyl)-1H-benz[e]indolium chloride]",87 nM,57%,1.23,1.49,1.96,1.5,,,
"COc1ccc(-c2noc(CC(=O)NCCCCNc3cc4[o+]c5cc(N(C)C)ccc5nc4c4ccccc34)c2-c2ccc(OC)cc2)cc1.[Cl-] [RR11, N-[4-(9-dimethylimino-9H-benzo[a]phenoxazin-5-ylamino)butyl]-2-(3,4-bis(4-methoxyphenyl)isoxazol-5-yl)acetamide chloride, reference compound]",32 nM,,,,,,75,83%,1.28
